Article PMC11355195 (Life, 2024)
Values after ≈ are worked out from the molar mass of the structure shown.

Tests used:
DPPH scavenging capacity = details: 0.1 mM DPPH
Description: The method utilized to test the compound’s efficacy in scavenging DPPH radicals was based on protocols detailed in references, with minor changes. The test was completed in duplicate for each concentration. A solution of 0.1 mM DPPH (2,2-diphenyl-1-picrylhydrazyl) was produced, and the compounds were evaluated at different concentrations ranging from 1 to 500 µg/mL. Ascorbic acid served as the positive control with concentrations ranging from 0.01 to 300 µg/mL [35].

ABTS scavenging activity = test: ABTS scavenging activity
Source text: With a few minor adjustments, the procedure published by Re et al., was used to evaluate the test samples’ capacity to scavenge radicals against the ABTS (2,2′-azinobis-3-ethylbenzothiazoline-6-sulphonate) radical cation.

MCF-7 = test: MTT cell viability, MCF-7; assay type: cell-based, Human; details: Homo sapiens, MCF7; MTT test; 72 h of treatment (Figure 3); read-out: IC50 Value ± SD, MCF-7
Description: (§1) These cell lines were selected to represent distinct sub-types of breast cancer for extensive investigation. […] The medium was added with 10% heat-inactivated fetal calf serum (FCS) to supply vital growth hormones and nutrients necessary for cell proliferation. Additionally, 1% penicillin streptomycin was administered to avoid bacterial contamination, ensuring the sterility and integrity of the cell cultures. The cell cultures were maintained at 37 °C in a humidified environment containing 5% CO2. This controlled environment mimics physiological conditions in the human body, supporting optimal cell development and function. The humidified atmosphere prevents medium evaporation, while the 5% CO2 concentration maintains optimal pH values in the culture medium. These specialized circumstances and methods ensure that the breast cancer cell lines remain healthy and viable for experimental procedures, delivering dependable and reproducible results for research projects. The standard protocols followed for cultivating these cells are crucial for generating consistent and reliable data. Using well-characterized cell lines from a credible source like ATCC ensures the re-liability and comparability of the experimental outcomes.
(§2) This approach determines cell viability based on the ability of living cells to decrease MTT to a purple, water-insoluble formazan product. Cells were planted in 96-well plates at a density of 1 × 10^4 cells per well in 100 μL of complete culture media, which provides all necessary nutrients for cell growth. […] The cells were then treated with the compounds for 24, 48, and 72 h to determine the effect on cell viability over varied time intervals. Following each incubation time, 20 μL of MTT solution (at a concentration of 5 mg/mL in PBS) were applied to each well. The plates were further incubated for 4 h at 37 °C, during which time live cells decrease the MTT to formazan, creating purple crystals. At the end of the incubation, the medium containing the MTT was carefully aspirated, leaving only the formazan crystals in the bottom of the wells. […]

MDA-MB-231 = test: MTT cell viability, MDA-MB-231; assay type: cell-based, Human; details: Homo sapiens, MDA-MB-231; MTT test; 72 h of treatment (Figure 3); read-out: IC50 Value ± SD, MDA-MB-231
Description: as §1, §2

MDA-MB-436 = test: MTT cell viability, MDA-MB-436; assay type: cell-based, Human; details: Homo sapiens, MDA-MB-436; MTT test; 72 h of treatment (Figure 3); read-out: IC50 Value ± SD, MDA-MB-436
Description: as §1, §2

[1] = tested on: peripheral blood mononuclear cells (PBMC); test: MTT cell viability, PBMC (normal cell control); assay type: cell-based; details: PBMC, MTT test, 72 h of treatment (Figure 3), read-out: IC50 Value ± SD, PBMC
Description: This approach determines cell viability based on the ability of living cells to decrease MTT to a purple, water-insoluble formazan product. Cells were planted in 96-well plates at a density of 1 × 10^4 cells per well in 100 μL of complete culture media, which provides all necessary nutrients for cell growth. […] The cells were then treated with the compounds for 24, 48, and 72 h to determine the effect on cell viability over varied time intervals. Following each incubation time, 20 μL of MTT solution (at a concentration of 5 mg/mL in PBS) were applied to each well. The plates were further incubated for 4 h at 37 °C, during which time live cells decrease the MTT to formazan, creating purple crystals. At the end of the incubation, the medium containing the MTT was carefully aspirated, leaving only the formazan crystals in the bottom of the wells. To dissolve these crystals, 100 μL of DMSO were administered to each well. […] This formula quantifies the reduction in cell viability in response to the treatments compared to the control. […] Cisplatin, a known anticancer drug, was used as a reference drug at varying concentrations from 0.01 to 50 µg/mL.

Cc1ccc(C(C)C)c(O)c1 [Thymol, 2-isopropyl-5-methylphenol]
DPPH Scavenging Capacity IC50 (DPPH scavenging capacity): 161.02 ± 6.89 µg/mL
ABTS Scavenging Activity IC50 (ABTS scavenging activity): 125.31 ± 6.25 µg/mL
IC50 (MCF-7): 5.16 ± 0.71 µg/mL (≈ 34.3 µM)
IC50 (MDA-MB-231): 8.22 ± 0.94 µg/mL (≈ 54.7 µM)
IC50 (MDA-MB-436): 15.8 ± 1.69 µg/mL (≈ 105 µM)
IC50 [1]: 307 ± 3.48 µg/mL (≈ 2050 µM)
